Tests used:
[1] = Naproxen aldehyde solubility in acetone (visual cloud point / clear point); format: physicochemical
From the text: Solubility data for solids in acetone solvent were obtained by visually obtaining a "cloud" point for a solution of known composition by slowly cooling the solution. After obtaining a "cloud" point the solution was slowly heated until a "dear" point was observed. The "clear" point represents the saturation temperature of the solution and the "cloud" point the temperature at which massive spontaneous nucleation occurs.
Naproxen aldehydes [i.e., R- and S-2-(6-methoxy-2-naphthyl)propionaldehyde]are very soluble in acetone.

[2] = background, in words; cited from earlier work

Q: For `COc1ccc2cc(C(C)C=O)ccc2c1` (racemic) [Naproxen Aldehyde, R- and S-2-(6-methoxy-2-naphthyl)propionaldehyde], which solubility in acetone ([1]; in words) is on record?
A: very soluble

Q: And the “temperature dependence of solubility” value ([1]; in words)?
A: very sensitive to temperature

Q: And the “Cloud Point” value ([1]; solids 22.0 wt %, solids/liquid ratio 0.28, massive spontaneous nucleation temperature)?
A: -15 °C

Q: And the “Clear Point” value ([1]; solids 22.0 wt %, solids/liquid ratio 0.28, saturation temperature)?
A: 1 °C

Q: And the “Cloud Point” value ([1]; solids 29.0 wt %, solids/liquid ratio 0.41, massive spontaneous nucleation temperature)?
A: -17 °C

Q: And the “Clear Point” value ([1]; solids 29.0 wt %, solids/liquid ratio 0.41, saturation temperature)?
A: 6 °C

Q: And the “Cloud Point” value ([1]; solids 30.0 wt %, solids/liquid ratio 0.43, massive spontaneous nucleation temperature)?
A: -6 °C

Q: And the “Clear Point” value ([1]; solids 30.0 wt %, solids/liquid ratio 0.43, saturation temperature)?
A: 11 °C

Q: And the “Cloud Point” value ([1]; solids 35.3 wt %, solids/liquid ratio 0.55, massive spontaneous nucleation temperature)?
A: -9 °C

Q: What about the “Clear Point” value ([1]; solids 35.3 wt %, solids/liquid ratio 0.55, saturation temperature) of the same compound?
A: 15 °C

Q: And the “Cloud Point” value ([1]; solids 47.0 wt %, solids/liquid ratio 0.89, massive spontaneous nucleation temperature)?
A: 5 °C

Q: What about the “Clear Point” value ([1]; solids 47.0 wt %, solids/liquid ratio 0.89, saturation temperature) of the same compound?
A: 25 °C

Q: For `COc1ccc2cc([C@H](C)C(=O)O)ccc2c1` [S enantiomer, S-2-(6-methoxy-2-naphthyl)propionic acid], which anti-arthritic activity [2] is on record?
A: potent anti-arthritic agent

Source: patent publication US5739385A, “Process for preparing optically active carboxylic acids” (Union Carbide Chemicals & Plastics Technology Corporation, priority 1995, dated 1998)
